Source: US20250275976A1, “Methods of Treating Neuroinflammatory Conditions” (Athira Pharma, Inc., priority 2022, published 2025)
“Also recorded” adds a separate entry of the source. Square brackets hold non-standard residues; d marks the D form. Peptide text beside a SMILES is read from it. * marks the point of attachment. Hexanoyl = CCCCCC(=O)*; Ahx = NCCCCCC(=O)O

How the values were obtained:
[1] = test system: BV2 microglia; test: pAKT in LPS-stimulated BV2 microglia (HTRF); format: cell-based; conditions: for Inflammatory Readout: pAKT (significance of reduction): LPS pre-treatment 45 minutes, compound 1 hour
Description: Microglia are the resident immune cells of the brain and, when activated by pathological conditions, promote broad-spectrum neuroinflammation. When activated by toxic exogenous substances, microglia produce excessive reactive oxygen species (ROS), nitric oxide (NO), and proinflammatory cytokines, which further propagates disease pathogenesis. BV2 microglia were used as an in-vitro cell model to evaluate mechanisms relevant to inflammation in the CNS. Upon activation of TLR4 with LPS, microglia are activated and trigger excessive oxidative stress, a process that is partially mediated by AKT phosphorylation (pAKT) and activation. Microglia activation also leads to a range of changes in gene expression.
Compound A19 active metabolite (Compound A19-AM) was investigated for whether it could reduce the inflammatory effect of LPS in microglia. Inflammatory activation of BV2 microglia cells was stimulated by pre-treatment with LPS for 45 minutes, followed by the addition of test compound for 1 hour (pAKT) or 23.5 hours (NO and gene expression panel). For pAKT measurement, cells were lysed and the pAKT measurement was conducted using the HTRF system. For NO production, culture supernatants were collected and assessed for the presence of nitrite, a primary metabolic product of nitric oxide.
Quantification of nitrite production in cell culture supernatants was accomplished using the Griess Reagent System (Promega, G2930). Measurement of pAKT was assessed utilizing Phospho-AKT 1/2/3 (Ser473) […] Cellular Detection Kit (CisBio, 64AKSPEH).
Data analysis was performed via One-way ANOVA with Dunnett's multiple comparisons test compared to LPS-stimulated, vehicle treated cultures using Prism statistical software (GraphPad). Tabular data indicates significance of reduction in the indicated analyte at the indicated dose.

[2] = test system: male CD-1 mice; test: T-maze spontaneous alternation, LPS-induced cognitive deficit; format: in vivo, mouse; conditions: for Reversal of LPS-induced cognitive deficit in T-maze (result in words): ANOVA, Fisher's PLSD, p<0.05, doses as in the value; for Spontaneous alternation (%) Mean: LPS 250 μg/kg i.p.; for Recovery (%): saline/vehicle = 100%, LPS/vehicle = 0%
Description: Encephalitis refers to inflammation of the brain that may result in brain swelling fever, headache, confusion, and seizures. The source of neuroinflammation can vary widely, including due to viral, bacterial, parasitic, or fungal infection or due to autoimmune diseases. Lipopolysaccharide (LPS) is a bacterial endotoxin that induces an intense neuroinflammatory reaction and has been associated with cognitive decline. The ability of Compound A19 to reverse cognitive decline induced by LPS in a mouse model of encephalitis was studied using a T-maze assay. In a separate substantially similar assay, Compounds 1a and 5a were also assessed.
Spontaneous and continuous alternation is the innate tendency of rodents to alternate free choices in a T-maze (T-CAT) over a series of successive runs. This sequential procedure relies on working memory and is sensitive to various pharmacological manipulations affecting memory processes. The present studies were conducted to evaluate the abilities of Compound A19, Compound 1a and Compound 5a to reverse LPS-induced cognitive deficit in the T-maze assay.
Compound A19 was dissolved in 0.9% NaCl (saline) and vortexed periodically until complete dissolution and with the pH adjusted between 7.4 and 7.8. Compound A19 was used in concentrations of 0.125, 0.1, 0.05, 0.025 and 0.0125 mg/ml which when given in a volume of 10 ml/kg result in doses of 1.25, 1, 0.5, 0.25 and 0.125 mg/kg, respectively. Compound 1a was dissolved at 160 mg/ml in 100% DMSO and vortexed until complete dissolution. Then the above stock solution was diluted in 20% PEG-400 and 78% 0.9% NaCl, whereby the stock solution comprised 2% of the final solution. Compound 1a was used in concentrations of 0.05, 0.2, 0.8, 1.6 and 3.2 mg/ml which when given in a volume of 10 ml/kg result in doses of 0.5, 2, 8, 16 and 32 mg/kg, respectively. Compound 5a was dissolved at 100 mg/ml in 100% DMSO and vortexed until complete dissolution. Then the above stock solution was diluted in 20% PEG-400 and 78% 0.9% NaCl, whereby the stock solution comprised 2% of the final solution. Compound 5a was used in concentrations of 0.125, 0.25, 0.5, 1 and 2 mg/ml which when given in a volume of 10 ml/kg result in doses of 1.25, 2.5, 5, 10 and 20 mg/kg, respectively.
Memantine was dissolved in saline. Memantine was used in concentration of 0.1 and 0.01 mg/ml, which when given in a volume of 10 ml/kg result in a dose of 1 and 0.1 mg/kg, respectively. Memantine is approved for symptomatic treatment of Alzheimer's disease was used as a reference compound.
LPS was dissolved in saline and prepared at a concentration of 0.0125 mg/ml and given intraperitoneally (i.p.) at a dosage volume of 20 ml/kg to yield a dose of 0.25 mg/kg ([…]).
Four to five weeks old male CD-1 mice (Janvier; Le Genest St Isle - France) were used for the study.
LPS was injected i.p. 2 weeks prior the T-maze trial. Compound 1a was tested at doses of 0.5, 2, 8, 16, and 32 mg/kg administered orally (p.o.) for 14 days with last treatment given 60 min before the T-maze trial. Compound 5a was tested at the doses of 1.25, 2.5, 5, 10, and 20 mg/kg administered orally (p.o.) for 14 days with last treatment given 60 min before the T-maze trial. LPS was injected i.p. 2 weeks prior the T-maze trial.
The T-maze apparatus was made of gray Plexiglas with a main stem (55 cm long×10 cm wide×20 cm high) and two arms (30 cm long×10 cm wide×20 cm high) positioned at a 90-degree angle relative to the main stem. A start box (15 cm long×10 cm wide) was separated from the main stem by a guillotine door. Horizontal doors were also provided to close specific arms during the force choice alternation task.
The experimental protocol consisted of a single session, which started with one “forced-choice” trial, followed by 14 “free-choice” trials. In the “forced-choice” trial, the animal was confined 5 seconds in the start arm and was then released while either the left or right goal arm was blocked by a horizontal door. […]

CCCCCC(=O)N[C@@H](Cc1ccc(O)cc1)C(=O)N[C@H](C(=O)NCCCCCC(N)=O)[C@@H](C)CC [Compound A19 active metabolite, dihexa] (Hexanoyl-Tyr-Ile-[Ahx]-NH2)
AKT phosphorylation (result in words) ([1]; LPS-stimulated BV2): significantly reduced | Inflammatory Readout: pAKT (significance of reduction) ([1]; dose 0.001 nM): ++ (“++” indicates a p value < 0.005 in Dunnett's multiple comparison) | Inflammatory Readout: pAKT (significance of reduction) ([1]; dose 1 nM): ++ (“++” indicates a p value < 0.005 in Dunnett's multiple comparison)

CCC(C)CN1CC2N(C(=O)c3ccc(C(F)(F)F)cc3)CCC(=O)N2[C@@H](C)C1=O (some centres unmarked) [Compound 1a]
Reversal of LPS-induced cognitive deficit in T-maze (result in words) [2]: significant reversal of LPS-induced cognitive deficits at 2 mg/kg; also recorded: trending at 8 and 32 mg/kg; also recorded: reversed the LPS-induced cognitive disruption | Spontaneous alternation (%) Mean ([2]; Compound 1a 0.5 mg/kg p.o. daily 14 days): 49% | Spontaneous alternation (%) Mean ([2]; Compound 1a 0.5 mg/kg p.o. daily 14 days, listed as Cmpd 1a): 48.6% | Recovery (%) ([2]; Compound 1a 0.5 mg/kg p.o.): 17% | Spontaneous alternation (%) Mean ([2]; Compound 1a 2 mg/kg p.o. daily 14 days): 59% | Spontaneous alternation (%) Mean ([2]; Compound 1a 2 mg/kg p.o. daily 14 days, listed as Cmpd 1a): 58.6% | Recovery (%) ([2]; Compound 1a 2 mg/kg p.o.): 56% | Spontaneous alternation (%) Mean ([2]; Compound 1a 8 mg/kg p.o. daily 14 days): 56% | Spontaneous alternation (%) Mean ([2]; Compound 1a 8 mg/kg p.o. daily 14 days, listed as Cmpd 1a): 56.4% | Recovery (%) ([2]; Compound 1a 8 mg/kg p.o.): 47% | Spontaneous alternation (%) Mean ([2]; Compound 1a 16 mg/kg p.o. daily 14 days): 51% | Spontaneous alternation (%) Mean ([2]; Compound 1a 16 mg/kg p.o. daily 14 days, listed as Cmpd 1a): 51.4% | Recovery (%) ([2]; Compound 1a 16 mg/kg p.o.): 28% | Spontaneous alternation (%) Mean ([2]; Compound 1a 32 mg/kg p.o. daily 14 days): 56% | Spontaneous alternation (%) Mean ([2]; Compound 1a 32 mg/kg p.o. daily 14 days, listed as Cmpd 1a): 55.7% | Recovery (%) ([2]; Compound 1a 32 mg/kg p.o.): 44%

CCC(C)CN1CC2N(Cc3ccc(C(F)(F)F)cc3)CCC(=O)N2[C@@H](C)C1=O (some centres unmarked) [Compound 5a]
Reversal of LPS-induced cognitive deficit in T-maze (result in words) [2]: significant reversal of LPS-induced cognitive deficits at all doses; also recorded: reversed the LPS-induced cognitive disruption | Spontaneous alternation (%) Mean ([2]; Compound 5a 1.25 mg/kg p.o. daily 14 days): 59% | Spontaneous alternation (%) Mean ([2]; Compound 5a 1.25 mg/kg p.o. daily 14 days, listed as Cmpd 5a): 59.3% | Recovery (%) ([2]; Compound 5a 1.25 mg/kg p.o.): 58% | Spontaneous alternation (%) Mean ([2]; Compound 5a 2.5 mg/kg p.o. daily 14 days): 58% | Spontaneous alternation (%) Mean ([2]; Compound 5a 2.5 mg/kg p.o. daily 14 days, listed as Cmpd 5a): 57.9% | Recovery (%) ([2]; Compound 5a 2.5 mg/kg p.o.): 53% | Spontaneous alternation (%) Mean ([2]; Compound 5a 5 mg/kg p.o. daily 14 days): 61% | Spontaneous alternation (%) Mean ([2]; Compound 5a 5 mg/kg p.o. daily 14 days, listed as Cmpd 5a): 60.7% | Recovery (%) ([2]; Compound 5a 5 mg/kg p.o.): 64% | Spontaneous alternation (%) Mean ([2]; Compound 5a 10 mg/kg p.o. daily 14 days): 58% | Spontaneous alternation (%) Mean ([2]; Compound 5a 10 mg/kg p.o. daily 14 days, listed as Cmpd 5a): 57.9% | Recovery (%) ([2]; Compound 5a 10 mg/kg p.o.): 53% | Spontaneous alternation (%) Mean ([2]; Compound 5a 20 mg/kg p.o. daily 14 days): 60% | Spontaneous alternation (%) Mean ([2]; Compound 5a 20 mg/kg p.o. daily 14 days, listed as Cmpd 5a): 60.0% | Recovery (%) ([2]; Compound 5a 20 mg/kg p.o.): 61%
